Calls of active or inactive are those of the source. No cut-off for these calls is given here.
Experiments:
[1] = biological target: T1, Bile acid receptor (Homo sapiens, UniProt Q96RI1); test: Activation of human FXR LBD expressed in HEK293T cells assessed as induction of receptor activation incubated for 12 to 14 hrs by luciferase reporter gene assay; format: cell-based, HEK-293T
T1 sequence (Q96RI1 whole entry): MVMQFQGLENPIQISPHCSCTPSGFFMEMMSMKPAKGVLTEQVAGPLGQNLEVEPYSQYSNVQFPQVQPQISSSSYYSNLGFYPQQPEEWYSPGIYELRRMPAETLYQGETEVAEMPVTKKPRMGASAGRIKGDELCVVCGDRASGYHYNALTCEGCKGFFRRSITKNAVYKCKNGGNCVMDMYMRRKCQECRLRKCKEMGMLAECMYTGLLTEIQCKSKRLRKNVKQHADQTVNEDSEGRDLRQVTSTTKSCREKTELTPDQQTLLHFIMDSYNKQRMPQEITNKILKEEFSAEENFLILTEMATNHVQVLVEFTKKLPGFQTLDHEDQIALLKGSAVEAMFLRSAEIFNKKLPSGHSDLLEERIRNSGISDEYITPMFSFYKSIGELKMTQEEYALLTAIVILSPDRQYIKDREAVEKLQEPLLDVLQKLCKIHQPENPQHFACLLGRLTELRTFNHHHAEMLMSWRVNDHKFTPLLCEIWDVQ

[2] = biological target: T2, Bile acid receptor (Homo sapiens) (UniProt Q96RI1); test: Activation of human FXR LBD expressed in HEK293T cells assessed as induction of receptor activation at 1 uM incubated for 12 to 14 hrs by luciferase reporter gene assay relative to GW4064; format: cell-based; settings: HEK-293T
T2 sequence (whole entry): T1 sequence (Q96RI1 whole entry)

[3] = biological target: T3, Peroxisome proliferator-activated receptor delta (Homo sapiens, UniProt Q03181); test: Activation of human PPAR-delta LBD expressed in HEK293T cells assessed as induction of receptor activation incubated for 12 to 14 hrs by luciferase reporter gene assay; format: cell-based, HEK-293T
T3 sequence (Q03181 whole entry): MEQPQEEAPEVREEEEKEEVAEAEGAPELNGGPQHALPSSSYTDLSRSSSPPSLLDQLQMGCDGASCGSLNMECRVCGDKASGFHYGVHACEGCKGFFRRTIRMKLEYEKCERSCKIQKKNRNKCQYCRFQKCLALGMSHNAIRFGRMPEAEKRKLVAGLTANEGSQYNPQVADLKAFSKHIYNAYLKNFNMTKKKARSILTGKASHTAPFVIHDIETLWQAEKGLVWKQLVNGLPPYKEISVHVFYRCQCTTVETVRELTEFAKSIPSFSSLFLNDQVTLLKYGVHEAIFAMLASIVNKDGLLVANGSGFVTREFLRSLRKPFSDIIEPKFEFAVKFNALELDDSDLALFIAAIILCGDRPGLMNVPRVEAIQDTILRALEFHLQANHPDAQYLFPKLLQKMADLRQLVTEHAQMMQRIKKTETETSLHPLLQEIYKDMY

[4] = biological target: T4, Peroxisome proliferator-activated receptor delta (Homo sapiens) (UniProt Q03181); test: Activation of human PPAR-delta LBD expressed in HEK293T cells assessed as induction of receptor activation at 1 uM incubated for 12 to 14 hrs by luciferase reporter gene assay relative to L165,041; format: cell-based; settings: HEK-293T
T4 sequence (whole entry): T3 sequence (Q03181 whole entry)

[5] = biological target: T2, Bile acid receptor (Homo sapiens); test: Activation of human FXR LBD expressed in HEK293T cells assessed as induction of receptor activation at 20 uM incubated for 12 to 14 hrs by luciferase reporter gene assay; format: cell-based; settings: HEK-293T
[6] = biological target: T2, Bile acid receptor (Homo sapiens); test: Activation of human FXR LBD expressed in HEK293T cells assessed as induction of receptor activation at 1 uM incubated for 12 to 14 hrs by luciferase reporter gene assay; settings: HEK-293T
[7] = tested on: HepG2; test: Toxicity in human HepG2 cells assessed as reduction in cell viability up to 100 uM incubated for 48 hrs by WST1 assay; format: cell-based; settings: hepg2, 48 h
[8] = Aqueous solubility in pH 8 buffer by HPLC analysis; format: physicochemical
[9] = Stability in Sprague-Dawley rat liver microsomes assessed as remaining parent compound level at 10 uM presence of NADPH regenerating system by HPLC analysis; format: ADME, Microsome; settings: read-out: Stability
[10] = biological target: T4, Peroxisome proliferator-activated receptor delta (Homo sapiens); test: Activation of human PPAR-delta LBD expressed in HEK293T cells assessed as induction of receptor activation up to 10 uM incubated for 12 to 14 hrs by luciferase reporter gene assay; format: cell-based; settings: HEK-293T
[11] = biological target: T2, Bile acid receptor (Homo sapiens); test: Activation of human FXR LBD expressed in HEK293T cells assessed as induction of receptor activation at 30 uM incubated for 12 to 14 hrs by luciferase reporter gene assay; format: cell-based; settings: HEK-293T
[12] = biological target: T4, Peroxisome proliferator-activated receptor delta (Homo sapiens); test: Activation of human PPAR-delta LBD expressed in HEK293T cells assessed as induction of receptor activation at 30 uM incubated for 12 to 14 hrs by luciferase reporter gene assay; format: cell-based; settings: HEK-293T
[13] = biological target: T4, Peroxisome proliferator-activated receptor delta (Homo sapiens); test: Activation of human PPAR-delta LBD expressed in HEK293T cells assessed as induction of receptor activation at 20 uM incubated for 12 to 14 hrs by luciferase reporter gene assay; format: cell-based; settings: HEK-293T
[14] = biological target: T4, Peroxisome proliferator-activated receptor delta (Homo sapiens); test: Activation of human PPAR-delta LBD expressed in HEK293T cells assessed as induction of receptor activation at 1 uM incubated for 12 to 14 hrs by luciferase reporter gene assay; format: cell-based; settings: HEK-293T

| SMILES | EC50 [1] | %max [2] | EC50 [3] | %max [4] | other results |
| --- | --- | --- | --- | --- | --- |
| CC(C)c1onc(-c2c(Cl)cccc2Cl)c1COc1ccc(CCCC(=O)O)cc1 | 6 µM | 51% | 0.7 µM | 15% |  |
| CC(C)c1onc(-c2ccccc2)c1COc1ccc(CCCCCC(=O)O)cc1 |  |  | > 10 µM |  | Activity [5]: inactive |
| CC(C)c1onc(-c2ccccc2)c1COc1ccc(COc2ccc(CC(=O)O)cc2)cc1 | 11 µM | 11% | 4.3 µM | 54% |  |
| CC(C)c1onc(-c2ccccc2Cl)c1COc1ccc(COc2ccc(CC(=O)O)cc2)cc1 | 2.5 µM | 9% | 2 µM | 23% |  |
| CC(C)c1onc(-c2ccccc2)c1COc1ccc(CCCC(=O)O)cc1 | 31 µM | 11% | 0.9 µM | 8.7% |  |
| CC(C)c1onc(-c2c(Cl)cccc2Cl)c1COc1ccc(COc2ccc(CC(=O)O)cc2)c(Cl)c1 | 0.8 µM | 117% | 1.8 µM | 15% |  |
| CC(C)c1onc(-c2c(Cl)cccc2Cl)c1COc1ccc(/C=C/c2cccc(C(=O)O)c2)c(Cl)c1 |  |  |  |  | Activity [6]: Active; Activity [7]: Non-Toxic; solubility [8]: < 0.1 µg/mL; remaining at 10 µM [9]: 10%; Activity [10]: inactive |
| CC(C)c1onc(-c2c(Cl)cccc2Cl)c1COc1ccc(COc2ccc(CC(=O)O)cc2)cc1 | 2 µM | 37% | 3.1 µM | 17% |  |
| CC(C)c1onc(-c2ccccc2C(F)(F)F)c1COc1ccc(CCCC(=O)O)cc1 | 4.4 µM | 37% | > 30 µM |  |  |
| CC(C)c1onc(-c2ccccc2Cl)c1COc1ccc(COc2ccc(OCC(=O)O)cc2)cc1 | 4.7 µM | 17% | 7.2 µM | 15% |  |
| Cc1onc(-c2ccccc2)c1COc1ccc(CCCC(=O)O)cc1 |  |  |  |  | Activity [11]: inactive; Activity [12]: inactive |
| Cc1cccc(C)c1-c1noc(C(C)C)c1COc1ccc(CCCC(=O)O)cc1 | 7.7 µM | 15% |  |  | Activity [12]: inactive |
| CC(C)c1onc(-c2ccccc2)c1COc1ccc(CCCCC(=O)O)cc1 | > 30 µM |  | > 30 µM |  |  |
| CC(C)c1onc(-c2ccccc2Cl)c1COc1ccc(CCCC(=O)O)cc1 | 3.8 µM | 16% | 0.8 µM | 9% |  |
| CC(C)c1onc(-c2ccccc2)c1COc1ccc(COc2ccc(C(=O)O)cc2)cc1 | 2.3 µM | 5.1% | > 30 µM |  |  |
| CC(C)c1onc(-c2ccccc2)c1COc1ccc(Oc2ccc(C(=O)O)cc2)cc1 | 11 µM | 13% |  |  | Activity [12]: inactive |
| CC(C)c1onc(-c2ccccc2)c1COc1ccc(COc2ccc(CCC(=O)O)cc2)cc1 |  |  | 11 µM | 32% | Activity [5]: inactive |
| CC(C)c1onc(-c2ccccc2)c1COc1ccc(COc2cccc(C(=O)O)c2)cc1 |  |  | > 30 µM |  | Activity [11]: inactive |
| CC(C)c1onc(-c2ccccc2Cl)c1COc1ccc(COc2ccc(C(C)(C)C(=O)O)cc2)cc1 |  |  |  |  | Activity [5]: inactive; Activity [13]: inactive |
| CCCc1c(OCCCOc2ccc(OCC(=O)O)cc2)ccc(C(C)=O)c1O |  |  |  |  | Activity [14]: Active |
| Cc1cc(NCc2ccc(OCc3c(-c4c(Cl)cccc4Cl)noc3C(C)C)cc2)ccc1CC(=O)O | 1.2 µM | 37% | 9 µM | 15% |  |
| CC(C)c1onc(-c2c(Cl)cccc2Cl)c1COc1ccc(CNc2ccc(CC(=O)O)cc2)cc1 | 1.6 µM | 29% | 3.6 µM | 15% |  |
